Test results as given in ChEMBL document CHEMBL1147880, “beta-Alkylthio indolyl carbinols: potent nonsteroidal antiandrogens with oral efficacy in a prostate cancer model” (Bioorg Med Chem Lett, 2007).
Calls of active or inactive are those of the source. The rule behind the calls is not given here.

Key:
Rattus norvegicus [1] = assay: Reduction of prostate weight in orally dosed immature rat; assay type: functional
Rattus norvegicus [2] = assay: Reduction of prostate weight in orally dosed mature rat; assay type: functional; settings: Prostate gland, po, read-out: ID50 (the source's name)
[3] = Half life in mature rat; assay type: ADME, organism-based; settings: in vivo
[4] = target: T1, Androgen receptor (Homo sapiens) (UniProt P10275); assay: Binding affinity to AR expressed in COS cells by whole-cell binding assay; assay type: cell-based
T1 sequence (whole entry): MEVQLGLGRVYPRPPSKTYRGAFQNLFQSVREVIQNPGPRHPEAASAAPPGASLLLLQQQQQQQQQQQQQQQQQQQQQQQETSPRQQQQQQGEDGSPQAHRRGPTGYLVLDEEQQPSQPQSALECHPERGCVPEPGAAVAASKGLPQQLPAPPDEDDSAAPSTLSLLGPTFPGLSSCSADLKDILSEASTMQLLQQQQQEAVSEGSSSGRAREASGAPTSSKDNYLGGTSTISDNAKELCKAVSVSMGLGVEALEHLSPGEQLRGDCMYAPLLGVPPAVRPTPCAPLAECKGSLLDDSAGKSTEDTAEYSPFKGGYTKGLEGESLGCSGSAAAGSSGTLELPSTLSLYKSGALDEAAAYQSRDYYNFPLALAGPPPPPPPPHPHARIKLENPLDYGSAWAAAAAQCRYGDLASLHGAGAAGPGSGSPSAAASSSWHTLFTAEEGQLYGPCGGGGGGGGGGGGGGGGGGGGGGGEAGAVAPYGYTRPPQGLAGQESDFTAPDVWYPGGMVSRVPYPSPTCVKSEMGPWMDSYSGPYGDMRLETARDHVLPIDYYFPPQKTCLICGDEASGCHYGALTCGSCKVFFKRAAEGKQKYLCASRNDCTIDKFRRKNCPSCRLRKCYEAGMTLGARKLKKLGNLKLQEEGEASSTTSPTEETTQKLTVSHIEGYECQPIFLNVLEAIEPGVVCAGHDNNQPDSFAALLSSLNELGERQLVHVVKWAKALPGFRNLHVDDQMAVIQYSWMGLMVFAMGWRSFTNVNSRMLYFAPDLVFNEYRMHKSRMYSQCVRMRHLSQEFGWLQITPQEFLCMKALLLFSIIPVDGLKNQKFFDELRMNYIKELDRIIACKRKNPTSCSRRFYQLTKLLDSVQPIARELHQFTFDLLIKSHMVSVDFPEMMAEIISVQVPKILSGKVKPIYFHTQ

Rattus norvegicus [5] = assay: Reduction of prostate weight in orally dosed castrated mature rat; assay type: functional, organism-based; settings: Prostate gland
[6] = Oral bioavailability in mature rat; assay type: ADME, organism-based; settings: in vivo
LNCaP = assay: Inhibition of tumor growth in LNCaP cells xenografted mouse at 100 mg/kg, po after 51 days; assay type: functional, organism-based; design: dose 100 mg/kg; settings: Homo sapiens

## CCSC[C@](C)(O)c1cc2cc(C#N)ccc2[nH]1
Rattus norvegicus [1]; Prostate gland
  Activity: inactive

## CCSC[C@](C)(O)c1cc2cc(C#N)c(C(F)(F)F)cc2[nH]1 [listing 1 of 2 here]
Rattus norvegicus [2]
  ED50: 22 mg/kg
Rattus norvegicus [1]
  Activity: 100%
  ID50: 0.44 mg/day

## CCSC[C@](C)(O)c1cc2cc(C#N)c(OC)cc2[nH]1
Rattus norvegicus [1]; Prostate gland
  Activity: inactive

## CC[S+]([O-])C[C@](C)(O)c1cc2cc(C#N)c(C(F)(F)F)cc2[nH]1 (some centres not stated)
Rattus norvegicus [1]
  Activity: 62%

## CCSC[C@](C)(O)c1cc2cc(C#N)c(C(F)(F)F)cc2[nH]1 [listing 2 of 2 here]
Rattus norvegicus [1]
  Activity: 100%

## CCSC[C@](C)(O)c1[nH]c2cc(C(F)(F)F)c(C#N)cc2c1C
Rattus norvegicus [2]
  ED50: > 60 mg/kg
Rattus norvegicus [1]
  Activity: 61%

## CCSC[C@](O)(CC)c1cc2cc([N+](=O)[O-])c(C(F)(F)F)cc2[nH]1
Rattus norvegicus [1]
  Activity: 73%

## CCSC[C@@](C)(O)c1cc2cc(C#N)c(C(F)(F)F)cc2[nH]1
Rattus norvegicus [1]; Prostate gland
  Activity: inactive

## CCSCC(O)(CSCC)c1cc2cc([N+](=O)[O-])c(C(F)(F)F)cc2[nH]1
Rattus norvegicus [1]
  Activity: 32%

## CSCC[C@@](C)(O)c1cc2cc([N+](=O)[O-])c(C(F)(F)F)cc2[nH]1
Rattus norvegicus [1]
  Activity: 44%

## CCSC[C@](C)(O)c1cc2cc(C#N)c(C(F)(F)F)cc2n1C
Rattus norvegicus [1]
  Activity: 43%

## C[C@@](O)(CSCc1ccccc1)c1cc2cc([N+](=O)[O-])c(C(F)(F)F)cc2[nH]1
Rattus norvegicus [1]
  Activity: 54%

## CCSC[C@](C)(O)c1cc2ccccc2[nH]1
Rattus norvegicus [1]
  Activity: 26%

## CCSC[C@](C)(O)c1cc2cc(C#N)c(C(F)(F)F)cc2n1CC#N
Rattus norvegicus [1]; Prostate gland
  Activity: inactive

## CCSC[C@](C)(O)c1cc2cc(Cl)ccc2[nH]1
Rattus norvegicus [1]; Prostate gland
  Activity: inactive

## CC(C)CSC[C@@](C)(O)c1cc2cc([N+](=O)[O-])c(C(F)(F)F)cc2[nH]1
Rattus norvegicus [1]
  Activity: 75%

## CCSC[C@@](C)(O)c1cc2cc([N+](=O)[O-])c(C(F)(F)F)cc2[nH]1
Rattus norvegicus [1]
  Activity: 75%

## CCSC[C@](C)(O)c1cc2cc(C#N)ncc2[nH]1
Rattus norvegicus [1]; Prostate gland
  Activity: inactive

## CCSC[C@](C)(O)c1cc2cc(Cl)c(C(F)(F)F)cc2[nH]1
Rattus norvegicus [1]
  Activity: 54%

## CCCCSC[C@@](C)(O)c1cc2cc([N+](=O)[O-])c(C(F)(F)F)cc2[nH]1
Rattus norvegicus [1]
  Activity: 40%

## CCSC[C@](C)(O)c1cc2cc(C#N)c(C(F)(F)F)cc2n1CC
Rattus norvegicus [1]
  Activity: 55%

## CCSC[C@](C)(O)c1cc2cc(F)c(Cl)cc2[nH]1
Rattus norvegicus [1]
  Activity: 60%

## CCSC[C@](C)(O)c1cc2cc(C#N)c(C)cc2[nH]1
Rattus norvegicus [1]; Prostate gland
  Activity: inactive

## CSC[C@@](C)(O)c1cc2cc([N+](=O)[O-])c(C(F)(F)F)cc2[nH]1
Rattus norvegicus [1]
  Activity: 66%

## CCSC[C@](C)(O)c1cc2cc([N+](=O)[O-])ccc2[nH]1
Rattus norvegicus [1]
  Activity: 34%

## C[C@@](O)(CSCc1ccco1)c1cc2cc([N+](=O)[O-])c(C(F)(F)F)cc2[nH]1
Rattus norvegicus [1]
  Activity: 46%

## CCSCC(C)(O)Cc1cc2cc([N+](=O)[O-])c(C(F)(F)F)cc2[nH]1 (configuration not stated)
Rattus norvegicus [1]; Prostate gland
  Activity: inactive

## CC(C)SC[C@@](C)(O)c1cc2cc([N+](=O)[O-])c(C(F)(F)F)cc2[nH]1
Rattus norvegicus [1]
  Activity: 42%

## CCSC[C@](C)(O)c1cc2cc(Cl)c(Cl)cc2[nH]1
Rattus norvegicus [1]; Prostate gland
  Activity: inactive

## C[C@@](O)(CSCC(F)(F)F)c1cc2cc([N+](=O)[O-])c(C(F)(F)F)cc2[nH]1
Rattus norvegicus [1]
  Activity: 46%

## CCSC[C@](C)(O)c1cc2cc(N)c(C(F)(F)F)cc2[nH]1
Rattus norvegicus [1]; Prostate gland
  Activity: inactive

## CCS(=O)(=O)C[C@](C)(O)c1[nH]c2cc(C(F)(F)F)c(C#N)cc2c1C
Rattus norvegicus [2]
  ED50: > 30 mg/kg
[3]
  half-life: 2 h
Rattus norvegicus [1]
  ID50: 2.4 mg/day

## CCCSC[C@@](C)(O)c1cc2cc([N+](=O)[O-])c(C(F)(F)F)cc2[nH]1
Rattus norvegicus [1]
  Activity: 40%

## CCSC[C@](C)(O)c1cc2cc(C#N)c(Cl)cc2[nH]1
Rattus norvegicus [1]
  Activity: 83%

## CCSCC(O)c1cc2cc([N+](=O)[O-])c(C(F)(F)F)cc2[nH]1 (configuration not stated)
Rattus norvegicus [1]
  Activity: 30%

## CCS(=O)(=O)C[C@](C)(O)c1cc2cc(C#N)c(C(F)(F)F)cc2[nH]1
Rattus norvegicus [2]
  ED50: 22 mg/kg
[4]
  Activity: Active
Rattus norvegicus [5]
  Activity: inactive
[3]
  half-life: 52 h
[6]
  bioavailability: 68%
LNCaP
  Activity: Active
Rattus norvegicus [1]
  Activity: 100%
  ID50: 0.89 mg/day

## O=[N+]([O-])c1cc2cc(C3(O)CCSC3)[nH]c2cc1C(F)(F)F (configuration not stated)
Rattus norvegicus [1]
  Activity: 49%

## CCSC[C@](C)(O)c1cc2cc(C)c(C(F)(F)F)cc2[nH]1
Rattus norvegicus [1]
  Activity: 22%

## CCSC[C@](C)(O)c1cc2cc([N+](=O)[O-])c(C(F)(F)F)cc2o1
Rattus norvegicus [1]
  Activity: 38%

## CC(O)(CS(=O)(=O)c1ccc(F)cc1)C(=O)Nc1ccc(C#N)c(C(F)(F)F)c1 (configuration not stated) [BICALUTAMIDE]
Rattus norvegicus [2]
  ED50: > 44 mg/kg
Rattus norvegicus [1]
  Activity: 75%
  ID50: 0.44 mg/day

## C[C@@](O)(CSCc1cccs1)c1cc2cc([N+](=O)[O-])c(C(F)(F)F)cc2[nH]1
Rattus norvegicus [1]
  Activity: 28%

## CCc1c([C@@](C)(O)CS(=O)(=O)CC)[nH]c2cc(C(F)(F)F)c(C#N)cc12
[3]
  half-life: 0.9 h
Rattus norvegicus [1]
  ID50: 1.4 mg/day

## CCSC[C@](C)(O)c1cc2cc(F)c(C(F)(F)F)cc2[nH]1
Rattus norvegicus [1]
  Activity: 58%

## CCSC[C@](C)(O)c1cc2cc(C#N)c(C(F)(F)F)cc2n1COC
Rattus norvegicus [1]
  Activity: 37%

## CCSC[C@@](C)(OC)c1cc2cc([N+](=O)[O-])c(C(F)(F)F)cc2[nH]1
Rattus norvegicus [1]
  Activity: 76%

## CCSCC(C)(O)c1cc2cc([N+](=O)[O-])cc(C(F)(F)F)c2[nH]1 (configuration not stated)
Rattus norvegicus [1]
  Activity: 66%

## CCSC[C@](C)(O)c1cc2cc(C#N)c(C(F)(F)F)cc2n1CC(F)(F)F
Rattus norvegicus [1]
  Activity: 53%
